Data from publication PMC9123294, “Role of LL-37 in thrombotic complications in patients with COVID-19” (Cellular and Molecular Life Sciences: CMLS, 2022).

Key:
[1] = target: Human alpha thrombin (Homo sapiens, UniProt P00734); test: biochemical
Description: SPR analysis was performed as described previously, with some modifications. Briefly, thrombin and FXa were immobilized on the activated sensor chip CM-5 by amine coupling. […] The equilibrium dissociation constant (KD) was calculated using the Langmuir model with Biacore evaluation software provided by the manufacturer.

[2] = target: T1, Human factor Xa (human, UniProt P00742 41-179; P00742 235-488); test: SPR; thrombin and FXa immobilised on a CM-5 sensor chip by amine coupling; LL-37 or Cramp flowed in HBS-EP+ running buffer at 30 ul/min; BIAcore 3000; KD from the Langmuir model; settings: both partners purified
T1 construct: also called FXa; source: bought: Enzyme Research Laboratories (HFXa 1011)
T1 sequence (P00742 41-179, chain 1 of 2): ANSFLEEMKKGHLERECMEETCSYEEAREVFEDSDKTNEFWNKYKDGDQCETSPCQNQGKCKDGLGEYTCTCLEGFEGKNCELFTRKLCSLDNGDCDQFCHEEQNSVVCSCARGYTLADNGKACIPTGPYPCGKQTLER
T1 sequence (P00742 235-488, chain 2 of 2): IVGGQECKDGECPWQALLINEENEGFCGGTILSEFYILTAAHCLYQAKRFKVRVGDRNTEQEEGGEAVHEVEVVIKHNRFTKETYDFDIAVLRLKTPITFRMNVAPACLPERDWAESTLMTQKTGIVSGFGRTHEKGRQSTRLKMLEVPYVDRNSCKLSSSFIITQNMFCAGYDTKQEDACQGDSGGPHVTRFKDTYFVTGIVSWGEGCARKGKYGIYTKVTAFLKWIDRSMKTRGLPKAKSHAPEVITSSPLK

Molecule | Kd [1] [µM] | Kd [2] [µM]
CC[C@H](C)[C@H](NC(=O)[C@H](CCCCN)NC(=O)[C@H](CCC(=O)O)NC(=O)[C@H](CCCCN)NC(=O)[C@H](CO)NC(=O)[C@H](CCCCN)NC(=O)[C@H](CCCNC(=N)N)NC(=O)[C@H](Cc1ccccc1)NC(=O)[C@H](Cc1ccccc1)NC(=O)[C@H](CC(=O)O)NC(=O)CNC(=O)[C@H](CC(C)C)NC(=O)[C@@H](N)CC(C)C)C(=O)NCC(=O)N[C@@H](CCCCN)C(=O)N[C@@H](CCC(=O)O)C(=O)N[C@@H](Cc1ccccc1)C(=O)N[C@@H](CCCCN)C(=O)N[C@@H](CCCNC(=N)N)C(=O)N[C@H](C(=O)N[C@H](C(=O)N[C@@H](CCC(N)=O)C(=O)N[C@@H](CCCNC(=N)N)C(=O)N[C@H](C(=O)N[C@@H](CCCCN)C(=O)N[C@@H](CC(=O)O)C(=O)N[C@@H](Cc1ccccc1)C(=O)N[C@@H](CC(C)C)C(=O)N[C@@H](CCCNC(=N)N)C(=O)N[C@@H](CC(N)=O)C(=O)N[C@@H](CC(C)C)C(=O)N[C@H](C(=O)N1CCC[C@H]1C(=O)N[C@@H](CCCNC(=N)N)C(=O)N[C@H](C(=O)N[C@@H](CCC(=O)O)C(=O)N[C@@H](CO)C(=O)O)[C@@H](C)O)C(C)C)[C@@H](C)CC)C(C)C)[C@@H](C)CC [LL-37] | 2.64 | 
GLLRKGGEKIGEKLKKIGQKIKNFFQKLVPQPE (also called LL-37 homolog from Mus musculus; cathelicidin peptide; source: synthetic peptide (GL Biochem, Shanghai; purity > 98%)) [Cramp] |  | 317
